Columns and labels:
[1] = test system: VEGF, Ki67, Cyclin D1 and β-catenin; assay: Immunohistochemistry of intestinal sections for tumor markers; format: in vivo, mice; conditions: vs sham
Excerpt: (§1) Swiss rolls of longitudinally opened intestinal segments were fixed overnight in 10% neutral buffered formalin. Samples were embedded in paraffin and 5 μm thick sections were further processed for histology and immunohistochemistry using antibodies for bovine alpha-Lactalbumin (ThermoFisher Scientific, Cat #A10-128A), β-catenin (CellSignaling, Cat #9562), Cyclin D1 (ThermoFisher Scientific, Cat #SC8396), Ki-67 (BD Biosciences, Cat #556003), VEGF (Abcam, Cat #ab46154), PD-1 (Abcam, Cat #ab214421) and TTF-1 (Abcam, Cat #ab227652) as previously described^28 with slight modifications. Citrate buffer (Dako Target Retrieval Solution, Agilent, Cat #S1699) was used for antigen retrieval for Cyclin D1, Ki-67, VEGF, bovine alpha-Lactalbumin and β-catenin staining. EDTA buffer (Abcam, Cat #ab64216) was used for antigen retrieval for TTF-1 staining. Immunohistochemistry was quantified by ImageJ. For Hematoxylin-Eosin (H&E) staining, Hematoxylin (ThermoFisher Scientific, Cat #7211) was used followed by Eosin-Y (ThermoFisher Scientific, Cat #7111) for counterstaining. Images were captured using the AX10 microscope or the Hamamatzu Nanozoomer scanner (Carl Zeiss) and the DAB-positive beta-catenin antibody fields (4-10) for each organ cross-sections were quantified by ImageJ.

[2] = test system: intestine of healthy C57BL/6 mice; assay: Real-time in vivo fluorescence imaging of BAMLET in healthy mice; conditions: oral gavage
[3] = test system: intestinal tumors of Apc^Min/+ mice; assay: Intestinal cancer model in Apc^Min/+ mice, BAMLET oral gavage, tumor enumeration and histology; format: in vivo
Description: Apc^Min/+ mice were obtained from Jackson Laboratories at about eight weeks of age. Genotyping was performed by PCR analysis of genomic DNA obtained from blood collected from the retro-orbital sinus. Multiple tumors were developed in the small intestine at eight to ten weeks. Mice were acclimated for about two weeks at the local animal facility at BMC, Lund University in order to reduce stress from transportation.
For BAMLET therapeutic protocol, ten-week-old female mice (n=10 per group) were orally gavaged with 20 mg of BAMLET in 400 μl PBS, twice daily for ten days. Mice were not given water or food five hours prior to BAMLET administration. Food and water were provided 30 minutes after BAMLET oral administration. Sham treated mice were gavaged with 400 μl PBS. Mice were sacrificed two weeks and five weeks after the end of the treatment and intestinal tissue samples were collected for further analysis.
Mice were sacrificed by isoflurane inhalation. Tumor enumeration and sample collection was presented as previously described^28. Tumor numbers and size were determined using a dissecting microscope (Olympus) and evaluated by three blinded investigators.
The opened intestinal segments were spread flat between sheets of filter paper and fixed overnight in 10% neutral buffered formalin. Formalin-fixed sections were transferred to 70% ethanol and stained with 0.2% methylene blue (Sigma, #M9140). Stained sections were rinsed in deionized water and imaged by a dissecting microscope.
as §1

[4] = test system: intestinal gene expression; assay: Transcriptomic analysis of intestinal tissue of Apc^Min/+ mice; format: in vivo
Description: Approximately 5 mg of tissue was homogenized using a Tissuelyser (Qiagen) and total RNA was extracted using the RNeasy kit (Qiagen), amplified using a GeneChip 3'IVT Express Kit, hybridized onto Mouse Genome 430 PM array strips, and scanned using the GeneAtlas system (Affymetrix). Data was normalized using Robust Multi Average implemented in the Transcriptome Analysis Console software (v.4.0.1.36, Applied Biosystems, ThermoFisher Scientific). Relative expression was analyzed by ANOVA using the empirical Bayes method, and genes with an absolute fold change >1.5 or 2.0 were considered differentially expressed. Heat maps were constructed using Graphpad Prism 9 and differentially expressed genes were analyzed using Ingenuity Pathway Analysis software (IPA, Qiagen).

[5] = test system: DLD1 colorectal adenocarcinoma cells; assay: TUNEL assay; format: cell-based, human; conditions: 7 μM, 21 μM and 35 μM, one hour
Description: DNA fragmentation was detected using the terminal deoxynucleotidyl transferase dUTP nick end-labeling (TUNEL) assay (Click-IT TUNEL Alexa Fluor 488 imaging assay kit, ThermoFisher Scientific, #C10245). DLD1 cells were seeded in 8-well chamber slide (2×10^4 cells/well) cultured overnight (37° C., 5% CO2) and incubated with BAMLET 7 μM, 21 μM and 35 μM for one hour in serum-free RPMI-1640 at 37° C. Cells were fixed (2% PFA, 15 minutes), permeabilized (0.25% Triton X-100 in PBS, 20 minutes) and incubated with TUNEL reaction mixture containing TdT for 60 minutes at 37° C. After the TUNEL reaction, cells were incubated with Click-iT reaction mixture for 30 minutes. Cells were counterstained with Hoechst 33342 (1:1000, 15 minutes, ThermoFisher Scientifi, Cat #62249), mounted in Fluoromount aqueous mounting media (Sigma, Cat #4680), and examined by LSM 900 confocal microscopy (Carl Zeiss). Fluorescence intensities were quantified by ImageJ.

DLD1 cells = assay: Cell death assays (Prestoblue and ATPlite); format: cell-based, human; conditions: 7, 21 and 35 μM; Prestoblue and ATPlite
Description: Two assays were used as an indirect measure of cell death. Luminescence-based ATPlite™ kit (Perkin Elmer) as well as the Prestoblue assay (ThermoFisher Scientific). Cells (5×10^4 cells/well) were seeded in serum-free RPMI-1640 on 96-well plates and treated with BAMLET and alpha1-oleate at different concentration (7, 21, and 35 μM) and incubated for one hour. Afterward, FCS was added at concentration of 5% and the cells were continuously incubated for two hours at 37° C., at the end of which the two kits were used according to manufactures' instructions. Luminescence and fluorescence were measured using a microplate reader (Infinite F200, Tecan). The experiments were performed in triplicate and repeated twice.

[6] = test system: Wnt/β-catenin signaling pathway; assay: Gene expression analysis of lungs, livers and kidneys of Apc^Min/+ mice; format: in vivo; conditions: BAMLET treated compared to sham treated Apc^Min/+ mice
healthy C57BL/6 mice = assay: BAMLET in healthy C57BL/6 mice: macroscopic inspection and intestinal gene expression analysis
Description: Approximately 5 mg of tissue was homogenized using a Tissuelyser (Qiagen) and total RNA was extracted using the RNeasy kit (Qiagen), amplified using a GeneChip 3'IVT Express Kit, hybridized onto Mouse Genome 430 PM array strips, and scanned using the GeneAtlas system (Affymetrix). Data was normalized using Robust Multi Average implemented in the Transcriptome Analysis Console software (v.4.0.1.36, Applied Biosystems, ThermoFisher Scientific). Relative expression was analyzed by ANOVA using the empirical Bayes method, and genes with an absolute fold change >1.5 or 2.0 were considered differentially expressed.
To identify effects on healthy tissues, healthy C57BL/6 mice received BAMLET by oral gavage or in the drinking water (FIG. 6). The effects were evaluated by macroscopic inspection of intestinal tissues and gene expression analysis.

[7] = test system: DLD1 colorectal carcinoma cells; assay: Live cell imaging assay, cellular uptake of labelled BAMLET; format: cell-based, human; conditions: 21 μM, one hour
Description: To visualize the cellular uptake of BAMLET, cells were seeded on 6-well ibidi chambers (3.5×10^4 cells/well) overnight and then treated with Janelia Fluor-549 labeled (TOCRIS, Cat #6147) BAMLET mixed with unlabelled BAMLET (21 μM) for one hour at 37° C. The nuclei were counterstained for five minutes with DAPI (Abcam Cat #ab228549, 1:1,000) and uptake of labelled BAMLET was captured with the LSM 900 laser scanning confocal microscope with oil immersion ×63 objectives (Carl Zeiss).

In the case of BAMLET, the “expression of tumor markers VEGF, Ki67, Cyclin D1 and β-catenin” value ([1]; intestinal sections, five weeks post gavage and eight weeks drinking water) is reported as “less strongly expressed”, the “β-catenin staining of intestinal sections” value ([1]; long-term BAMLET in drinking water) is reported as “markedly reduced” and the “BAMLET retention in the intestines of healthy mice” value [2] is reported as “lack of BAMLET retention”. For the same substance, the total polyp number ([3]; 20 mg gavage twice daily for ten days, two and five weeks post oral gavage, vs sham) was “lower”, the “number of small tumors, fully formed polyps and confluent tumors along the intestinal wall” value ([3]; Apc^Min/+ mice, H&E sections, BAMLET vs sham (PBS)) was “reduced” and the tumor areas ([3]; BAMLET treated Apc^Min/+ mice vs sham group, FIG. 1f) was “smaller”. For the same substance, the villus structure ([3]; after short-term BAMLET treatment, H&E sections) was “normal villus structure was detected in the majority of sections”, the “intestinal gene expression compared to healthy C57BL/6 mice” value ([4]; BAMLET treated Apc^Min/+ mice in contrast to sham, including cancer related biofunctions) was “significantly less affected” and the “number of genes regulated at all time points (shared genes)” value ([4]; BAMLET treated vs sham, cut-off fold change ≥2.0) was 2339. The cancer-related biofunctions ([4]; BAMLET treated vs sham, gavage or drinking water, shared genes) was “inhibited”, the “Wnt/β-catenin signaling (network analysis of shared genes)” value ([4]; genes regulated at all time points (2w pt, 5w pt, 8w dw), vs sham) was “inhibited” and the “Wnt/β-catenin signaling pathway, intestinal gene expression” value ([4]; long-term follow up, BAMLET in drinking water) was “inhibited”. The “PD-1 pathway activation (gene expression)” value ([4]; long-term, BAMLET treated Apc^Min/+ mice compared to healthy C57BL/6 mice) was “reduced PD-1 pathway activation”, the “PD-1 pathway (gene expression)” value ([4]; long-term, direct comparison BAMLET treated vs sham) was “most strongly down-regulated” and the “CD44 and its ligand SPP1 (osteopontin) expression” value ([4]; tumor microenvironment pathway, BAMLET vs sham) was “most strongly inhibited genes in the tumor microenvironment pathway”. For the same substance, the “principal component analysis of mRNA profiles” value ([4]; whole intestinal tissue) was “formed a cluster near the healthy mice and distant from the sham group”, the “TUNEL staining (DNA strand breaks)” value [5] was “Dose-dependent increase” and the cell viability (DLD1 cells) was “rapid dose-dependent reduction”. The “Wnt/β-catenin signaling pathway in lungs, livers and kidneys (gene expression)” value [6] was “down-regulated”, the “inflammatory or necrotic changes in the intestines or peripheral organs” value (healthy C57BL/6 mice; gavage or drinking water, vs untreated controls) was “no evidence of inflammatory or necrotic changes” and the “genes involved in lipid metabolism, glucose metabolism, insulin tolerance and immune regulation” value (healthy C57BL/6 mice; intestinal tissue) was “significantly affected”. For the same substance, the “toxic response (gene expression)” value (healthy C57BL/6 mice; intestinal tissue) was “no evidence of a toxic response”, the “number of regulated genes” value (healthy C57BL/6 mice; intestinal tissue, cut-off fold change ≥1.5, P<0.05) was “about 150 genes” and the “macroscopic appearance of tissues outside the intestinal tract” value (healthy C57BL/6 mice; mouse, in vivo) was “No changes in macroscopic appearance”. The organ weights (healthy C57BL/6 mice; mouse, in vivo) was “no change in organ weights” and the “uptake of labelled BAMLET” value [7] was “rapidly internalized into the cytoplasm and nuclei”.

Reference: patent US20260108588A1, “A COMPLEX COMPRISING A ALPHA-LACTALBUMIN AND A FATTY ACID OR LIPID FOR USE IN THE TREATMENT OR PREVENTION OF CANCER” (LINNANE PHARMA AB, priority 2022, published 2026)
